# Measurements: PMC10675073, “Effect of Phenolics from Aeonium arboreum on Alpha Glucosidase, Pancreatic Lipase, and Oxidative Stress; a Bio-Guided Approach” (Pharmaceutics, 2023)
# How the values were obtained:
# [1] = Ferric reducing antioxidant power (FRAP) assay
# Method: The samples were made in a mixture of methanol: DMSO (10:1) at a concentration of 2 mg/mL, while quercetin rhamnoside was made at a concentration of 0.9 mM. To produce the concentration–response curve, seven concentrations, including 7.812, 15.625, 31.25, 62.5, 125, 250, and 500 µM, were created from a stock solution of 1000 µM concentration of ascorbic acid, the positive control. According to the procedure of Benzie et al., this assay was conducted with minor modifications. It depends on Fe^3+ reduction into Fe^2+ which forms a colored complex with 2,4,6-tris (2-pyridyl)-s-[…] (TPTZ). In brief, in a 96-well plate (n = 3), […] of the sample was combined with […] of freshly made TPTZ reagent (300 mM acetate buffer (pH = 3.6), 10 mM TPTZ in 40 mM HCl, and 20 mM FeCl3, in that order; respectively). The reaction was then allowed to run at room temperature for 30 min while kept in a dark place, and the absorbance was measured at 593 nm. Data are shown as means ± SD [26]. […]
# [2] = target: T1, porcine pancreatic lipase (PPL) (Sus scrofa, UniProt P00591); experiment: Pancreatic lipase enzyme inhibition (p-NPD); format: biochemical
# T1 sequence (P00591 1-450): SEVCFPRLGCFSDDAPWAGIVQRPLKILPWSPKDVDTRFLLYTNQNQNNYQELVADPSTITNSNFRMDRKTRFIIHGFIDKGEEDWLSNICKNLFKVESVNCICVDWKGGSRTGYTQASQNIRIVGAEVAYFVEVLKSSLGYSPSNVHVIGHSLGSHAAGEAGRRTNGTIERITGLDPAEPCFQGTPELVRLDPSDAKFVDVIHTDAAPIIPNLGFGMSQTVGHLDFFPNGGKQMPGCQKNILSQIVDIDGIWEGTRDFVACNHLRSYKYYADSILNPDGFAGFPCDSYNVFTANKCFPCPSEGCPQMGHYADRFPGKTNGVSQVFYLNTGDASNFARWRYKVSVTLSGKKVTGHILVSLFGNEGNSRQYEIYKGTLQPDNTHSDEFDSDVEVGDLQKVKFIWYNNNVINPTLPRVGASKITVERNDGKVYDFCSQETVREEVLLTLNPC
# Method: P-nitrophenyl dodecanoate (p-NPD from Sigma Aldrich, St. Louis, MO, USA) was used as the substrate, and porcine pancreatic lipase (PPL) was prepared as previously stated by with minor modification. In sum, 25 μL of prepared samples along with a blank were first incubated with 50 µL of PPL (1 mg/mL) in a Tris-HCl buffer (100 mM, pH 8) for 10 min prior to detecting the PPL activity. Following the addition of […] of p-NPD (10 mM in isopropanol), the reaction was then incubated again at 37 °C for 20 min. using […] of Tris-HCl buffer as a volume diluent.
# ABTS assay = conditions: for % inhibition: standard curve (Figure S11)
# Method: In brief, the production of the ABTS radical cation (ABTS•+) involved mixing 5 mL of ABTS aqueous solution (7 mM) with […] of potassium persulfate (140 mM) while the mixture was left at room temperature for 16 h in the dark. […] The absorbance was then measured at 690 nm using a microplate reader (Tecan, USA). According to the following equation, data are shown as means (n = 3) SD:% Inhibition = [(A blank - A sample)/A blank] × 100 Using the linear regression method, the antioxidant effect of the various samples was determined as μM ascorbic acid equivalent.
# [3] = target: T2, Saccharomyces cerevisiae α-glucosidase (Saccharomyces cerevisiae, UniProt P53341); experiment: α-glucosidase enzyme inhibition (pNPG, colorimetric); format: biochemical; conditions: pure compounds, read-out: IC50 (Mean ± SE)
# T2 construct: purchased Sigma-Aldrich G5003-100UN
# T2 sequence (P53341 whole entry): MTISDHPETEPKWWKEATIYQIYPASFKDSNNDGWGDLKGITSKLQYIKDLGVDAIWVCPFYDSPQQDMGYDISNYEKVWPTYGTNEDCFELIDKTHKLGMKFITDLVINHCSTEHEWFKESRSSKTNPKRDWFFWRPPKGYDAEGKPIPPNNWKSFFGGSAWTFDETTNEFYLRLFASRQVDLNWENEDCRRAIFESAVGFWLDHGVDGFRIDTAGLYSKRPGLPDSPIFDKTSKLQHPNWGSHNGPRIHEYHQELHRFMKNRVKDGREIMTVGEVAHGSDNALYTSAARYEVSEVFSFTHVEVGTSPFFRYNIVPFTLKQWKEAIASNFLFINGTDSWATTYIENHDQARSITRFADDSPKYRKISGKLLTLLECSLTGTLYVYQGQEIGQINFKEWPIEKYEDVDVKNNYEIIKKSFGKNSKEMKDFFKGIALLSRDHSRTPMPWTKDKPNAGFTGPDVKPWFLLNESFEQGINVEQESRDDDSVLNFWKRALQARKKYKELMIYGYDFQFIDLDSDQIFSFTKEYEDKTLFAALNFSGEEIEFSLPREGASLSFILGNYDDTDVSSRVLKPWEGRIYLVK
# Method: Saccharomyces cerevisiae’s α-glucosidase was utilized (Sigma-Aldrich, St. Louis, MO, USA Cat#G5003-100UN). […] Seven concentrations, comprising 31.25, 62.5, 125, 250, 500, 750, and 1000 µM, were prepared from the buffer. […] Using p-nitrophenyl-D-glucopyranoside (pNPG) as a substrate, the inhibitory activity of α-Glucosidase was evaluated colorimetrically by applying the technique described by Gutiérrez-Grijalva et al. with minor modification. In 96-microwell plates, 25 μL of samples/blank were combined with 50 μL of S. cerevisiae α-glucosidase (0.6 U/mL) in phosphate buffer (0.1 M, pH 7) for 10 min at 37 °C. The mixture was then incubated once again for 5 min at 37 °C after the addition of 25 μL of 3 mM pNPG as a substrate in phosphate buffer (pH 7). Utilizing a microplate reader (Tecan, Männedorf, Switzerland) to measure the release of p-nitrophenol from the pNPG substrate at 405 nm, enzyme activity was ascertained [23]. After determining the absorbance (A), the inhibition % of -glucosidase was determined using the formula:% Inhibition = [(A blank − A sample)/A blank] × 100
# [4] = Metal chelation assay (Ferrozine)
# Method: Except for quercetin rhamnoside, all the samples were prepared at a concentration of 0.2 mg/mL in methanol. A stock solution of EDTA (positive control) was made at a concentration of 0.1 mM in water and serially diluted into seven concentrations (80, 70, 60, 50, 40, 20, and 10 μM) for the purpose of creating a concentration–response curve. The method described in [28] was used for the Ferrozine iron metal chelation test, with a few minor adjustments made for microplates. In brief, 50 μL of the sample or substance on a 96-well plate and 50 μL of acetate buffer pH = 6 (n = 6) were combined with 20 μL of newly produced ferrous sulphate (0.3 mM in acetate buffer pH = 6). Then, each well received 30 μL of Ferrozine (0.8 mM in acetate buffer, pH = 6). For 10 min, the reaction mixture was incubated at room temperature. At the completion of the incubation period, the FluoStar Omega microplate reader was used to measure the reduction in the intensity of the produced color. The following equation describes how data are expressed as means ± SD:% Inhibition = [(Average Absorbance of blank − Average Absorbance of Test)/Average Absorbance of blank] × 100
# The samples’ antioxidant potential was calculated as μM EDTA equivalents using the linear regression equation.
# [5] = Oxygen radical absorbance capacity (ORAC) assay; conditions: Table S6; per mM compound
# Method: Trolox (positive control) was prepared at 2 mM in MeOH then serially diluted into ten concentrations 1000, 800, 700, 600, 500, 400, 300, 200, 100, and 50 μM for the concentration–response curve construction. The total extract and DCM fractions were made at 0.2 mg/mL in methanol, 100% and 50% were prepared at 0.05 mg/mL in methanol, while quercetin rhamnoside was prepared at a concentration of 0.225 mM in methanol. The assay was carried out using Liang et al.’s (2014) methodology, with minor modifications. In brief, 10 μL of the prepared samples were allowed to sit at 37 °C for 10 min with […] of fluoresceine (100 nM). For the background measurement, fluorescence measurements (485 EX, 520 EM, nm) were carried out three times for a total of 90 s each (range 1, Figure 1). Then, 70 μL of freshly made 2,2′-Azobis (2-amidinopropane) dihydrochloride (AAPH) (300 mM) was added to each well. For 60 min (40 cycles, each lasting 90 sec), the measurement of fluorescence (485 EX, 520 EM, nm) was maintained. The antioxidant impact of the samples was determined as the μM Trolox equivalent using the linear regression equation, and the data are shown as means (n = 3) SD.
SMILES,"Trolox equivalent per mM sample ([1]; Table S5, FRAP) [µM TE/mM sample]","FRAP antioxidant activity, Trolox equivalent ([1]; per mM compound) [μmolar TE/mM]","inhibition at 500 µM ([2]; 500 µM, read-out: % Inhibition (Mean ± SD)) [%]","IC50 ([2]; pure compounds, read-out: IC50 (µM) (Mean ± SE))","ABTS antioxidant activity, ascorbic acid equivalent (ABTS assay; per mM compound) [μM AAE/mM]",IC50 [3] [µM],EDTA equivalent per mM sample ([4]; Table S7) [µM eq/ mM sample],"Metal chelation activity, EDTA equivalent ([4]; per mM compound) [μmolar EDTAE/mM]",Antioxidant activity using ORAC assay [5] [µMT eq/mM],% inhibition (ABTS assay; 7.8125 µM) [%],% inhibition (ABTS assay; 15.625 µM) [%],% inhibition (ABTS assay; 31.25 µM) [%],% inhibition (ABTS assay; 62.5 µM) [%],% inhibition (ABTS assay; 125 µM) [%],% inhibition (ABTS assay; 250 µM) [%],% inhibition (ABTS assay; 500 µM) [%]
"CC1OC(Oc2c(-c3ccc(O)c(O)c3)oc3cc(O)cc(O)c3c2=O)C(O)C(O)C1O (stereo not drawn) [Quercetin-3-rhamnoside, quercetin-3-O-α-rhamnoside]",1681.23,1681.2 ± 49.9,19.1 ± 0.34,> 500,1338.1 ± 81.38,126.4 ± 1.04,377.98,377.98 ± 10.17,25258.39,,,,,,,
O=C1O[C@H]([C@@H](O)CO)C(O)=C1O [ascorbic acid],,,,,,,,,,2.8930,3.7803,5.5156,9.7291,16.88,33.5451,62.86
